Data on ten compounds can be found in PMC8151276, “An Integrated Approach toward NanoBRET Tracers for Analysis of GPCR Ligand Engagement” (Molecules, 2021).

Common to all, as to type: binding
In one assay the target is T1, GRM2 (Homo sapiens, UniProt Q14416).
T1 construct: purchased Promega (in-house HiBiT-GPCR construct library, NanoBRET)
The assay can be described thus: NanoBRET screen HiBiT-GRM2 in HEK293. On the procedure:
(§1) Each tracer candidate was screened across the entire library of HiBiT-GPCR constructs using NanoBRET as the detection modality. As depicted in Figure 4A, the specificity of interactions was evaluated through decrease in BRET due to competitive displacement of a bound tracer by excess parental compound. Each tracer was analyzed for binding to each HiBiT-GPCR fusion in the absence and in the presence of competing parental compound. Briefly, HEK293 cells were transfected with HiBiT-GPCR constructs diluted into promoterless DNA to reduce expression and maximize translocation to the cell surface. Each tracer candidate was then screened at concentrations of 1 μM and 0.1 μM across cells expressing these fusions. Cells were treated for 1.5 h with tracer either alone or in the presence of 20 μM competing parental compound (i.e., control). BRET was measured upon addition of purified LgBiT and subsequent complementation with HiBiT genetically fused to a GPCR. The specificity of interactions was assessed through a decrease in BRET signal due to competitive displacement of the bound tracer. To further gauge the robustness of these interactions, the fold response over the control (i.e., BRETtracer/BRETcontrol) was calculated. We chose a 1.5-fold response, which translates to ≥7-fold signal over noise as the minimal threshold required to score an interaction as positive. […]. Below we highlight the screening results obtained for our exemplary fluorescent tracers based on Clozapine, Amitriptyline and AZD1283.
(§2) HiBiT-GPCR DNA constructs were diluted in 10 mM Tris pH 8 to a final concentration of 0.01 μg/μL, arrayed in 96-well plates and stored at −20 °C. For transfection, HEK293 cells were suspended in Opti-MEM (without phenol red) supplemented with 2% fetal bovine serum (Seradigm) and 100 units/mL penicillin–streptomycin (Gibco) at a final concentration of 220,000 cells/mL and dispensed into white 96-well plates at 90 μL/well. Subsequent transfections and screens were carried using an Agilent Bravo Automated Liquid Handling Platform. First, the 96-well HiBiT DNA arrays were diluted 25-fold in Opti-MEM (without serum or phenol red) to a final concentration of 0.0004 μg/μL and 20 μL of the diluted DNAs were transferred into new 96-well plates. Next, promoterless carrier DNA (1 μg/μL) was diluted 25-fold (0.04 μg/μL) and then dispensed into the diluted arrays at 20 μL/well. Following brief mixing, Viafect transfection reagent (Promega) diluted 16-fold into Opti-MEM was dispensed into the plates at 40 μL/well. After mixing by pipetting, plates were incubated for 10 min on the pipetting station deck. The DNA-transfection reagent complexes were then added to plates containing cells. To facilitate the screen, 10 μL of DNA-transfection reagent complexes were added in duplicates to the top 4 and bottom 4 rows, resulting in two identical 48-well arrays per plate. Plates with transfected cells were incubated for 18–20 h at 37 °C/5% CO2. A screen of each tracer across the entire library using two different concentrations requires duplicate plates of transfected cells. Depending on the number of tracers being screened, transfections can be scaled up using the same ratios. The next day, for each tracer, four 20× screening solutions in tracer dilution buffer (Promega) were prepared: two duplicates at final concentration of 20 μM and two duplicates at a final concentration of 2 μM. A competing unmodified compound was added to one of each duplicate at a final concentration of 400 μM. The four resulting solutions were diluted 4-fold in Opti-MEM without serum or phenol red to generate 5× solutions (5 µM and 0.5 µM tracer +/− 100 μM competing compound). To screen the library, a BioTek MultiFlo FX liquid dispenser was used to dispense 22.5 µL of tracer solution to the top 4 rows and 22.5 µL tracer + competing compound solution to the 4 bottom rows. Plates were briefly mixed on an orbital shaker and incubated for 1.5 h at room temperature. […]
(Bioluminescence resonance energy transfer reports proximity on the nanometre scale.)

The target in another assay is T2, F2RL1 (Homo sapiens, UniProt P55085).
T2 construct: purchased Promega (in-house HiBiT-GPCR construct library, NanoBRET)
T2 sequence (P55085 26-397): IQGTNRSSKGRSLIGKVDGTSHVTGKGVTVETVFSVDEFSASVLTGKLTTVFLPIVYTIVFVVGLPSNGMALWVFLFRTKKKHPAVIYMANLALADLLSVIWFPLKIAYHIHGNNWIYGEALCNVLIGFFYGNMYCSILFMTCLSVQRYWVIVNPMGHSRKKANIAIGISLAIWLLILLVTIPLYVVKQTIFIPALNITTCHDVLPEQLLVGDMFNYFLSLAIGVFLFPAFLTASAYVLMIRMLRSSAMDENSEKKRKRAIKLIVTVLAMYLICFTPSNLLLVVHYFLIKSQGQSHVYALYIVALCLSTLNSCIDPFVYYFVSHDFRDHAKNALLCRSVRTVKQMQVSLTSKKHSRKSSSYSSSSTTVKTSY
The assay can be described thus: NanoBRET screen HiBiT-F2RL1 in HEK293. The protocol: as §1, §2

The next assay has as its target T3, HTR1D (Homo sapiens, UniProt P28221).
T3 construct: purchased Promega (in-house HiBiT-GPCR construct library, NanoBRET)
The assay can be described thus: NanoBRET screen HiBiT-HTR1D in HEK293. The protocol:
as §1, §2

The target of a further assay is T4, HRH3 (Homo sapiens, UniProt Q9Y5N1).
T4 construct: purchased Promega (in-house HiBiT-GPCR construct library, NanoBRET)
T4 sequence (Q9Y5N1 whole entry): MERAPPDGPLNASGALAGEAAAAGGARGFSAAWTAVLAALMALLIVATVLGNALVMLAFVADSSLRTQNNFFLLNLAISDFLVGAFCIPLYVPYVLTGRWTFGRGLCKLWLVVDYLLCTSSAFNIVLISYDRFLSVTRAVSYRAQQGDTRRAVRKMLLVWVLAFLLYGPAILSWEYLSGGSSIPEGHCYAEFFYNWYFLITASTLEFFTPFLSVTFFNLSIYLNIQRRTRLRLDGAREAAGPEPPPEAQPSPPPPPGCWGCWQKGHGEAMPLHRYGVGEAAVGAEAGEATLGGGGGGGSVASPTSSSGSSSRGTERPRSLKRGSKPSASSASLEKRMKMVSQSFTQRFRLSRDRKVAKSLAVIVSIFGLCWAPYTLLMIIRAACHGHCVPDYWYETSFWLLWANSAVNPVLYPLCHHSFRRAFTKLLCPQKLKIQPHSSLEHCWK
Put plainly: NanoBRET screen HiBiT-HRH3 in HEK293. The protocol: as §1, §2

The next assay concerns the target T5, GRM5 (Homo sapiens, UniProt P41594).
T5 construct: purchased Promega (in-house HiBiT-GPCR construct library, NanoBRET)
Put plainly: NanoBRET screen HiBiT-GRM5 in HEK293. The protocol:
as §1, §2

T3 sequence (P28221 whole entry): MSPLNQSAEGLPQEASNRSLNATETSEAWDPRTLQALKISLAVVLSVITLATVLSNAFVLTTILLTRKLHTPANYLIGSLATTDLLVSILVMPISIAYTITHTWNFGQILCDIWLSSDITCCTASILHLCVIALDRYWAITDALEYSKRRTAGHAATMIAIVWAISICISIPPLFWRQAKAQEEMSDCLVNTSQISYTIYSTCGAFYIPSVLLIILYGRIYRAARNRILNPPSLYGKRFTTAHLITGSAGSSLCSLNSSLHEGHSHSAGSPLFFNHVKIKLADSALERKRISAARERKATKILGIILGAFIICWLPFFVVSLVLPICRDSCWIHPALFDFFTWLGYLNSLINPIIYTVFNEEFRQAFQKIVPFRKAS
T1 sequence (Q14416 19-872): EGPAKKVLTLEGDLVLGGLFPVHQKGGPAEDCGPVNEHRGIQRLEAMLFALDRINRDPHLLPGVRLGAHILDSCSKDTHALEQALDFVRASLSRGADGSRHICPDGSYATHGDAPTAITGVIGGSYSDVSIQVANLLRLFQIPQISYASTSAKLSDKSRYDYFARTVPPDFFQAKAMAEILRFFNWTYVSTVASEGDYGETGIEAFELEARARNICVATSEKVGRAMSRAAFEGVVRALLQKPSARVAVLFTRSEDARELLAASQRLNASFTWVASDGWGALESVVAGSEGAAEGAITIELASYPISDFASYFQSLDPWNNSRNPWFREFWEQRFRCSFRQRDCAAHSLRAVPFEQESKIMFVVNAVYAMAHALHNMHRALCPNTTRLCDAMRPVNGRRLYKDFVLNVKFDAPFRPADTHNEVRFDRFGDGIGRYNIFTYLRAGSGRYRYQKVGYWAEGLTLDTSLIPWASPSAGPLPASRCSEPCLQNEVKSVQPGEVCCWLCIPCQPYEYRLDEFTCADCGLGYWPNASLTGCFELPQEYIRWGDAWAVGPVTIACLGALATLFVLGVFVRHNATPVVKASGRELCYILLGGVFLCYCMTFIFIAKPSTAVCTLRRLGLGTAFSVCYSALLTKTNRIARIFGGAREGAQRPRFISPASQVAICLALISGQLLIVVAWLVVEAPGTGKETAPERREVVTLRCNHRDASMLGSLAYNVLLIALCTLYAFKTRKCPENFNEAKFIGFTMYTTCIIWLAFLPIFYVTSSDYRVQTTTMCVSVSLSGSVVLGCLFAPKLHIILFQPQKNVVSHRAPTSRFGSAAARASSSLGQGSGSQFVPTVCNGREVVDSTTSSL
T5 sequence (P41594 21-1212): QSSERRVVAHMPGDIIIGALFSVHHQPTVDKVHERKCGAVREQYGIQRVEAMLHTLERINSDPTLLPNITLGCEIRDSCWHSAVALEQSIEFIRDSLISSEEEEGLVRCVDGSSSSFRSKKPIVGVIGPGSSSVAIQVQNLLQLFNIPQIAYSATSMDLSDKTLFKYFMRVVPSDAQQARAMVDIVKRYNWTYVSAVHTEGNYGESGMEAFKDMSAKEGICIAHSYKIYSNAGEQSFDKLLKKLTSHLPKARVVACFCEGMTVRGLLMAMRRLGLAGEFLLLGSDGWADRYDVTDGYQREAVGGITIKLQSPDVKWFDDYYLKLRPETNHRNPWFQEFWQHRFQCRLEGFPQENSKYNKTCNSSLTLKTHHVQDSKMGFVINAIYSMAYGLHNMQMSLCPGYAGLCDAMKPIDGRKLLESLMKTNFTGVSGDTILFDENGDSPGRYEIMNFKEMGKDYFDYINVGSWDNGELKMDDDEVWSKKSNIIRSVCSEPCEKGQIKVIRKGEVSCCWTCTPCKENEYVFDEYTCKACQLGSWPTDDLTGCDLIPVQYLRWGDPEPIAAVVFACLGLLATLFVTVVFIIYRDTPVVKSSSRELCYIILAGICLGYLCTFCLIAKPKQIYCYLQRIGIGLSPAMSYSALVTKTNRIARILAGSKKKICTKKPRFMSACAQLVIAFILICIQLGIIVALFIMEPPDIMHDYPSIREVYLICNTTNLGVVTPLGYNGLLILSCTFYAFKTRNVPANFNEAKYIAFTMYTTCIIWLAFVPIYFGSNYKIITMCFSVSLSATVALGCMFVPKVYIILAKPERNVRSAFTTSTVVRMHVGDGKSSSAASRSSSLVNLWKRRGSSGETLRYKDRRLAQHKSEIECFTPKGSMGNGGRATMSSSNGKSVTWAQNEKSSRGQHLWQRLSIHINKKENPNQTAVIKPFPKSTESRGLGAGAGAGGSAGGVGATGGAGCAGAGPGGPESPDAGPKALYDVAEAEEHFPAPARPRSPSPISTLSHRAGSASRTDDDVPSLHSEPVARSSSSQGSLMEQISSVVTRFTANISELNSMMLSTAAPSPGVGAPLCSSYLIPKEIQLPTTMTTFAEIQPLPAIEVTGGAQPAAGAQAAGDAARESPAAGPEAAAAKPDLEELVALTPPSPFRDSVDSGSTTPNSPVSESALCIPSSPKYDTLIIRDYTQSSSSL

Turning to `O=C(CCc1ccc2n1[B-](F)(F)[N+]1=C(c3ccc[nH]3)C=CC1=C2)NCc1ccc(C(=O)NCCOCCC(=O)N[C@@H]2CC[C@@]3(O)[C@H]4Cc5ccc(O)c6c5[C@@]3(CCN4CC3CC3)[C@H]2O6)cc1` [Naltrexone-3-NB590], the “NanoBRET Fold Response” value on GRM2 (GRM2, tracer 0.1μM) is listed as 0.92; on GRM2 (GRM2, tracer 1μM), 0.98; on F2RL1 (F2RL1, tracer 0.1μM), 0.79; on F2RL1 (F2RL1, tracer 1μM), 0.91; at HTR1D (HTR1D, tracer 0.1μM) it was 0.53; at HTR1D (HTR1D, tracer 1μM), 0.94. In addition, the “NanoBRET Fold Response” value was found to be 0.76 at HRH3 (HRH3, tracer 0.1μM); 0.77 at HRH3 (HRH3, tracer 1μM); 1.25 on GRM5 (GRM5, tracer 0.1μM); 1.14 at GRM5 (GRM5, tracer 1μM).

Regarding `CN1CCN(C2=Nc3cc(Cl)ccc3N(CC(=O)NCCOCCOCCOCCOCCNC(=O)CCc3ccc4n3[B-](F)(F)[N+]3=C(c5ccc[nH]5)C=CC3=C4)c3ccccc32)CC1` [Clozapine-c-2-NB590], the “NanoBRET Fold Response” value at GRM2 (GRM2, 0.1μM tracer) is listed as 0.97; on GRM2 (GRM2, 1μM tracer), 1.00; on F2RL1 (F2RL1, 0.1μM tracer), 0.97; on F2RL1 (F2RL1, 1μM tracer), 1.00; on HTR1D (HTR1D, 0.1μM tracer), 1.00; on HTR1D (HTR1D, 1μM tracer) it was 1.00. Moreover, the “NanoBRET Fold Response” value on HRH3 (HRH3, 0.1μM tracer) turned out to be 0.98; at HRH3 (HRH3, 1μM tracer), 0.86; at GRM5 (GRM5, 0.1μM tracer), 0.99; on GRM5 (GRM5, 1μM tracer) it was 1.12.

Consider `O=C(CCOCCOCCOCCOCCNC(=O)CCc1ccc2n1[B-](F)(F)[N+]1=C(c3ccc[nH]3)C=CC1=C2)NCCCN1CCN(C2=Nc3cc(Cl)ccc3Nc3ccccc32)CC1` [Clozapine-a-2-NB590], for which the “NanoBRET Fold Response” value came out at 1.03 on GRM2 (GRM2, 0.1μM tracer); 1.01 on GRM2 (GRM2, 1μM tracer); 0.89 on F2RL1 (F2RL1, 0.1μM tracer); 1.16 on F2RL1 (F2RL1, 1μM tracer); 1.21 on HTR1D (HTR1D, 0.1μM tracer); 1.67 on HTR1D (HTR1D, 1μM tracer). Further, the “NanoBRET Fold Response” value on HRH3 (HRH3, 0.1μM tracer) is given as 0.97; at HRH3 (HRH3, 1μM tracer) it was 0.91; at GRM5 (GRM5, 0.1μM tracer) it was 0.99; at GRM5 (GRM5, 1μM tracer), 1.10.

In the case of `CCOC(=O)c1cc(C#N)c(N2CCC(C(=O)NS(=O)(=O)Cc3ccccc3/C=C/C(=O)NCCNC(=O)CCc3ccc4n3[B-](F)(F)[N+]3=C(c5ccc[nH]5)C=CC3=C4)CC2)nc1C` [AZD1283-1-NB590], the “NanoBRET Fold Response” value at GRM2 (GRM2, 0.1μM) is given as 1.00; on GRM2 (GRM2, 1μM) it was 0.43; at F2RL1 (F2RL1, 0.1μM), 1.06; at F2RL1 (F2RL1, 1μM), 1.06; at HTR1D (HTR1D, 0.1μM), 0.90; at HTR1D (HTR1D, 1μM) it was 0.88. Moreover, the “NanoBRET Fold Response” value at HRH3 (HRH3, 0.1μM) is listed as 1.16; at HRH3 (HRH3, 1μM) it was 0.87; on GRM5 (GRM5, 0.1μM) it was 1.01; at GRM5 (GRM5, 1μM), 0.97.

For the compound `COc1ccc2[nH]c(-c3ccc(CNC(=O)CCOCCOCCOCCOCCNC(=O)CCc4ccc5n4[B-](F)(F)[N+]4=C(c6ccc[nH]6)C=CC4=C5)cc3)c(CCNC(C)=O)c2n1` [AzomelatoninICO9-2-NB590], the “NanoBRET Fold Response” value on GRM2 (0.1μM tracer) is recorded as 1.11; at GRM2 (1μM tracer) it was 0.95; on F2RL1 (0.1μM tracer), 0.95; on F2RL1 (1μM tracer), 0.83; on HTR1D (0.1μM tracer) it was 0.63; on HTR1D (1μM tracer), 1.14. For the same compound, the “NanoBRET Fold Response” value on HRH3 (0.1μM tracer) was found to be 1.09; at HRH3 (1μM tracer), 1.03; on GRM5 (0.1μM tracer), 0.97; on GRM5 (1μM tracer) it was 1.03.

On to `CCCn1c(=O)c2[nH]c(-c3ccc(OCC(=O)NCCNC(=O)CCOCCNC(=O)c4ccc(CNC(=O)CCc5ccc6n5[B-](F)(F)[N+]5=C(c7ccc[nH]7)C=CC5=C6)cc4)cc3)nc2n(CCC)c1=O` [XAC-3-NB590], for which the “NanoBRET Fold Response” value at GRM2 (GRM2, tracer 0.1μM) is reported as 1.01; on GRM2 (GRM2, tracer 1μM), 1.03; on F2RL1 (F2RL1, tracer 0.1μM), 1.04; at F2RL1 (F2RL1, tracer 1μM), 0.97; at HTR1D (HTR1D, tracer 0.1μM), 0.47; at HTR1D (HTR1D, tracer 1μM) it was 0.65. Further, the “NanoBRET Fold Response” value at HRH3 (HRH3, tracer 0.1μM) came to 0.81; on HRH3 (HRH3, tracer 1μM), 1.33; on GRM5 (GRM5, tracer 0.1μM), 1.01; on GRM5 (GRM5, tracer 1μM), 0.98.

Turning to `COc1ccccc1N1CCN(CCCCN2C(=O)c3ccc(CNC(=O)CCOCCNC(=O)c4ccc(CNC(=O)CCc5ccc6n5[B-](F)(F)[N+]5=C(c7ccc[nH]7)C=CC5=C6)cc4)cc3C2=O)CC1` [NAN-190-3-NB590], the “NanoBRET Fold Response” value is 1.03 on GRM2 (GRM2, tracer 0.1μM); 1.03 on GRM2 (GRM2, tracer 1μM); 0.96 on F2RL1 (F2RL1, tracer 0.1μM); 1.08 on F2RL1 (F2RL1, tracer 1μM); 1.11 on HTR1D (HTR1D, tracer 0.1μM); 1.70 on HTR1D (HTR1D, tracer 1μM). For the same compound, the “NanoBRET Fold Response” value stood at 1.38 on HRH3 (HRH3, tracer 0.1μM); 0.93 on HRH3 (HRH3, tracer 1μM); 1.05 on GRM5 (GRM5, tracer 0.1μM); 1.15 on GRM5 (GRM5, tracer 1μM).

For `CN(CCC=C1c2ccccc2CCc2ccccc21)C(=O)CCOCCOCCOCCOCCNC(=O)CCc1ccc2n1[B-](F)(F)[N+]1=C(c3ccc[nH]3)C=CC1=C2` [Amitriptyline-e-2-NB590], the “NanoBRET Fold Response” value is recorded as 0.96 on HTR1D (tracer at 1μM) and 0.95 at HRH3 (tracer at 1μM).

With `N#CN/C(=N\CCNC(=O)c1ccc(N)cc1)NCCCOc1cccc(CN2CCCCC2)c1` [Aminopotentidine (unmodified)], the “NanoBRET Fold Response” value at HTR1D (HTR1D, other tracers/Aminopotentidine (unmodified), 0.1μM) came out at 1.06; at HTR1D (HTR1D, other tracers/Aminopotentidine (unmodified), 1μM), 1.50.

As to `CN(C)CCC=C1c2ccccc2CCc2ccc(C(=O)NCCNC(=O)CCOCCOCCOCCOCCNC(=O)CCc3ccc4n3[B-](F)(F)[N+]3=C(c5ccc[nH]5)C=CC3=C4)cc21` [Amitriptyline-a-2-NB590], the “NanoBRET Fold Response” value at F2RL1 (tracer at 0.1μM) came out at 1.01; at F2RL1 (tracer at 1μM), 1.07; at HTR1D (tracer at 0.1μM), 1.09; on HTR1D (tracer at 1μM), 1.09; at HRH3 (tracer at 0.1μM), 1.01; at HRH3 (tracer at 1μM) it was 0.94.
